Reference: PubChem BioAssay (NCI)
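How tested: cells in 96-well plates exposed to compound for 48 hours at five concentrations. GI50 marks 50% less growth. At the TGI there is no net growth.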

Tests used:
Experiment in all cases: NCI anticancer screen, dose series, 48 h
SK-OV-3 ovarian = system: SK-OV-3 ovarian
UACC-62 melanoma = system: UACC-62 melanoma
HCT-116 colon = system: HCT-116 colon
MCF7 breast = system: MCF7 breast
T-47D breast = system: T-47D breast
U251 CNS = system: U251 CNS
DU-145 prostate = system: DU-145 prostate
UO-31 renal = system: UO-31 renal
TK-10 renal = system: TK-10 renal
HCC-2998 colon = system: HCC-2998 colon
MALME-3M melanoma = system: MALME-3M melanoma
SNB-75 CNS = system: SNB-75 CNS
RXF 393 renal = system: RXF 393 renal
RPMI-8226 leukemia = system: RPMI-8226 leukemia
SN12C renal = system: SN12C renal
M14 melanoma = system: M14 melanoma
MOLT-4 leukemia = system: MOLT-4 leukemia
SR leukemia = system: SR leukemia
SF-539 CNS = system: SF-539 CNS
SF-295 CNS = system: SF-295 CNS
NCI-H23 lung = system: NCI-H23 lung
NCI/ADR-RES ovarian = system: NCI/ADR-RES ovarian
KM12 colon = system: KM12 colon
OVCAR-4 ovarian = system: OVCAR-4 ovarian
HS 578T breast = system: HS 578T breast
K-562 leukemia = system: K-562 leukemia
SK-MEL-28 melanoma = system: SK-MEL-28 melanoma
EKVX NSCLC = system: EKVX NSCLC
ACHN renal = system: ACHN renal

## Cc1ccc(-c2nc3nc(-c4ccc(Br)cc4)nc(N4CCCNCC4)c3o2)cc1
SK-OV-3 ovarian
  GI50: 17.5 µM
  TGI: 33.4 µM
UACC-62 melanoma
  GI50: 17 µM
  TGI: 31.9 µM
HCT-116 colon
  GI50: 1.82 µM
  TGI: 3.36 µM
MCF7 breast
  GI50: 1.78 µM
  TGI: 3.51 µM
T-47D breast
  GI50: 3.06 µM
  TGI: 13.9 µM
U251 CNS
  GI50: 1.77 µM
  TGI: 3.45 µM
DU-145 prostate
  GI50: 1.92 µM
  TGI: 3.55 µM
UO-31 renal
  GI50: 2.12 µM
  TGI: 7.04 µM
TK-10 renal
  GI50: 20 µM
  TGI: 34.8 µM
HCC-2998 colon
  GI50: 15.4 µM
  TGI: 30.2 µM
MALME-3M melanoma
  GI50: 15.4 µM
  TGI: 30.1 µM
SNB-75 CNS
  GI50: 10.5 µM
  TGI: 22.4 µM
RXF 393 renal
  GI50: 13.7 µM
  TGI: 27.5 µM
RPMI-8226 leukemia
  GI50: 2.58 µM
  TGI: 6.63 µM
SN12C renal
  GI50: 10.5 µM
  TGI: 23.7 µM
M14 melanoma
  GI50: 4.64 µM
  TGI: 18.1 µM
MOLT-4 leukemia
  GI50: 2.08 µM
  TGI: 4.14 µM
SR leukemia
  GI50: 1.78 µM
  TGI: 4.4 µM
SF-539 CNS
  GI50: 3.27 µM
  TGI: 11.4 µM
SF-295 CNS
  GI50: 17.9 µM
  TGI: 33 µM
NCI-H23 lung
  GI50: 17.1 µM
  TGI: 34.9 µM
NCI/ADR-RES ovarian
  GI50: 2.2 µM
  TGI: 4.58 µM
KM12 colon
  GI50: 1.93 µM
  TGI: 3.82 µM
OVCAR-4 ovarian
  GI50: 7.2 µM
  TGI: 21 µM
HS 578T breast
  GI50: 17.2 µM
  TGI: 37.1 µM
K-562 leukemia
  GI50: 2.31 µM
  TGI: 4.98 µM
SK-MEL-28 melanoma
  GI50: 17.4 µM
  TGI: 31.8 µM
EKVX NSCLC
  GI50: 13.8 µM
  TGI: 28.4 µM
ACHN renal
  GI50: 1.91 µM
  TGI: 3.59 µM
